Article PMC9848259 (Journal of Enzyme Inhibition and Medicinal Chemistry, 2023)
Where two headings read alike, the source gives them in different places.

Assays:
SHSY5Y cell = assay: Toxicity towards SH-SY5Y cells (MTT); format: cell-based; settings: 0.1–10 µM
Protocol: The SH-SY5Y (human neuroblastoma) (European Collection of Cell Culture) was chosen to determine the neuroprotective properties of the novel compounds. The Ham’s F12:EMEM (1:1) medium was used (Sigma Aldrich), comprising 15% Foetal Bovine Serum (Biowest), 2 mM Glutamine (Sigma Aldrich), 100 units/ml penicillin and […] (Biological Industries) and 1% Non-Essential Amino Acids (Biological Industries).
SH-SY5Y cells were seeded at a density of 5 × 10^3 cells/well in 96-well plates. The cells were cultured for 24 h (37 °C, 5% CO2). After 24 h of incubation, the medium was removed and cells were exposed to 100 µl of the compound at a range of concentrations, or of culture medium alone (blank control). After incubation, the medium was removed, washed with PBS and 50 µl of the MTT solution was added. The plates were then incubated for two hours (37 °C, 5% CO2). The MTT solution was then removed from the wells and 100 µl of DMSO was added. The plates were incubated for 10 min at room temperature and then 5 µl of Sorensen Buffer was added. The plates were swayed and the absorbance measured in a microplate reader (Synergy H1, BioTek, Winooski, VT, USA) at a wavelength of 570 nm. Cell viability was expressed as a percentage of control values (blank control). The experiments were done in triplicate.

[1] = pKa assay (spectrophotometric); format: physicochemical; settings: potassium phosphate buffer series with methanol, 23 °C
Protocol: Potassium dihydrogen phosphate, potassium hydroxide and methanol (POCH) were used to prepare the buffer solution, as described previously. […]. The pH was measured in 23 °C by using a Mettler Toledo FiveEasy pH metre with a LE438 Lab pH electrode (Mettler Toledo). Our tested compound solution was 5 µM solution in methanol: water (1:1) mix.
Spectrophotometric measurement was performed in a 96-well plate using a Synergy H1 microplate reader (BioTek) with Gen5 software (BioTek). The full assay consisted of 35 UV spectrum measurements, one for each work buffer solution. For the assay, 180 μL sequent work buffer and 20 μL tested compound solution were added to each of 35 wells. For the blank, 200 μL sequent work buffer alone was added to each of 35 wells. The measurement was performed at 23 °C. The spectra were recorded from 280 nm to 380 nm in 1 nm steps. Concentrations were calculated based on the 332/343 nm and 343/332 nm ratio as described previously. The results were compared with computer calculations of pKa value obtained using chemicalize.com online software (ChemAxon 2018) and ACD/Percepta version 14.0.0 (Advanced Chemistry Development, Inc., Metropolitan Toronto, Canada).

SH-SY5Y cells [2] = assay: Neuroprotection against rotenone/oligomycin A, pre-incubation, MTT test; format: cell-based, human; settings: Rotenone/Oligomycin A 30/10 µM
[3] = molecular target: T1, AChE (from the electric eel) (Electrophorus electricus, UniProt O42275); assay: biochemical
T1 construct: purchased Sigma Aldrich
Protocol: The capacity of the novel cyclopentaquinoline hybrids to inhibit AChE (from the electric eel) and BuChE (from equine serum) were determined by the modified colorimetric Ellman’s method[38]^,[39]. Both enzymes, DTNB – Ellman’s reagent (5,5′-dithiobis-(2-nitrobenzoic acid)), acetyltiocholine iodide (ATCI) were obtained from Sigma Aldrich. AChE and BuChE samples in phosphate buffer (PBS) pH 8.0 were incubated in 96-well plates in the presence of the substrate (ATCI), 76 µl of DTNB and the tested compound at various concentration at room temperature for 10 min (AChE) or eight minutes (BuChE).

Aβ(1–42) aggregation = Aβ(1–42) aggregation (Homo sapiens, UniProt P05067); assay: In vitro β-amyloid assay, Thioflavin T fluorescence; format: biochemical; settings: ThT
female mice, Balb/c = assay: In vivo acute oral toxicity (OECD 423)
Protocol: (§1) Compound 3e was administered by the oral route (by gavage) in one of four fixed doses (5, 50, 300, 2000 mg/kg) for a given stage of the study. The results allow to classify the compound according to the Globally Harmonised Classification System for Chemical Substances and Mixtures (GHS). In addition, the LD50 cut-off values was determined. According to the figure from the OECD 423 guidelines, a maximum of six test stages can be performed. Three animals (female mice, Balb/c) took part in each stage, and the number of stages depends on the mortality of the animals, which is the final test parameter. The research was carried out on the basis of the agreement of the Local Ethical Committee for animal testing in Łódź No. 56/115 ŁB/2018.
(§2) After quarantine, handling, weighing and labelling, the compound 3e was given in a dose of 300 mg/kg (300 mg/kg is a dose used in the absence of information on the toxicity of the test substance. If 2–3 animals die after using this dose, compound will be given at a lower dose − 50 mg/kg. Last dose 5 mg/kg is used if after a dose of 50 mg/kg also 2–3 animals die. If no death occurs, or death of one animal, the compound is again administered to the stomach in the same dose 300 mg/kg, and […], a dose of 2000 mg/kg of body weight is used). The presence of a substance-dependent mortality of animals exposed at one stage determines the performance of the next stage of the study. After each dose, animals are observed for 14 days. […].

[4] = In vivo acute oral toxicity (OECD 423); set-up: species or system mice; settings: female, Balb/c, mouse, in vivo, OECD 423, read-out: LD50 cut-off
Protocol: as §1, §2

DNA = DNA damage; settings: any tested concentration
SH-SY5Y cells [5] = assay: Neuroprotection against rotenone/oligomycin A, co-incubation, MTT test; format: cell-based, human; settings: Rotenone/Oligomycin A 30/10 µM

Aβ(1–42) aggregation, sequence (P05067 672-713 limits assumed): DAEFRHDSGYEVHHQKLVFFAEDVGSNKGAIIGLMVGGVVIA
T1 sequence (O42275 24-633): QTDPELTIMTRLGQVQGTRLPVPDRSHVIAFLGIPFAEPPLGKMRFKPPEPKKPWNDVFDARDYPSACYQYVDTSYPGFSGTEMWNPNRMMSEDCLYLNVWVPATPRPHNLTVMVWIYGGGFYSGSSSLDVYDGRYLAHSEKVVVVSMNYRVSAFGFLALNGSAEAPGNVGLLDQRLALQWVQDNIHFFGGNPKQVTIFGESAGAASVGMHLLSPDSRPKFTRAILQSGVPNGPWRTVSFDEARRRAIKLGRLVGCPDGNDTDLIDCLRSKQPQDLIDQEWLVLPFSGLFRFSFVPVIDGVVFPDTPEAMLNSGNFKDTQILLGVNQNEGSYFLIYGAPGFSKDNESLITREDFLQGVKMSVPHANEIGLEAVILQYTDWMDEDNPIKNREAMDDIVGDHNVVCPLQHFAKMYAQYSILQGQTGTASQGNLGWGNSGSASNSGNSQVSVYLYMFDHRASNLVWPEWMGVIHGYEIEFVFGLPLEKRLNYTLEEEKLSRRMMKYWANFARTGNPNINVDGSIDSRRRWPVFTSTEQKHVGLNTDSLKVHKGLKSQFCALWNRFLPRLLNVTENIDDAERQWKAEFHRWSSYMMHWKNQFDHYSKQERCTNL

O=C(NCCCCCCNc1c2c(nc3ccccc13)CCC2)c1cc(Cl)cc(Cl)c1 [Compound 3e]
toxicity towards SHSY5Y cell (SHSY5Y cell): non-toxic
pKa ([1]; read-out: pKa1 Experimental): 8.4
pKa ([1]; read-out: pKa2 Experimental): 11.3
% neuroprotection (SH-SY5Y cells [2]; compound 0.0001 µM): 17.64%
% neuroprotection (SH-SY5Y cells [2]; compound 0.001 µM): 12.46%
% neuroprotection (SH-SY5Y cells [2]; compound 0.01 µM): 7.65%
% neuroprotection (SH-SY5Y cells [2]; compound 0.1 µM): 2.41%
Selectivity for AChE ([3]; IC50(BuChE)/IC50(AChE)): 0.89
IC50 ([3]; means ± SD of three experiments): 131 ± 16 nM
inhibition at 5 µM (Aβ(1–42) aggregation; 5 µM compound): 55.7 ± 4.7%
inhibition at 10 µM (Aβ(1–42) aggregation; 10 µM compound): 62.7 ± 5.3%
inhibition at 25 µM (Aβ(1–42) aggregation; 25 µM compound): 76.5 ± 3.7%
inhibition at 50 µM (Aβ(1–42) aggregation; 50 µM compound): 79.8 ± 2.9%
inhibition at 100 µM (Aβ(1–42) aggregation; 100 µM compound): 82.6 ± 1.7%
mortality (female mice, Balb/c; 300 mg/kg, first and second stages, 3 female Balb/c mice per stage): did not cause any death
mortality (female mice, Balb/c; 2000 mg/kg, stage one, 3 mice): no animal died
mortality (female mice, Balb/c; 2000 mg/kg, stage two, 3 mice): two died
GHS classification (female mice, Balb/c; OECD 423): Category 4 GHS
LD50 at 14 days [4]: 1000 mg/kg
DNA damage (DNA): did not induce DNA damage
% neuroprotection (SH-SY5Y cells [5]; compound 0.0001 µM): 12.75%
% neuroprotection (SH-SY5Y cells [5]; compound 0.001 µM): 8.67%
% neuroprotection (SH-SY5Y cells [5]; compound 0.01 µM): 2.82%
